Measured values published in PMC10764104, “Discovery of Molecular Glue Degraders via Isogenic Morphological Profiling” (ACS Chemical Biology, 2023).

Experiments:
[1] = test system: RKO WT cells; experiment: CellTiter-Glo cytotoxicity of selected compounds (manual, 72 h); type: cell-based, human; details: up to 10 μM
Method: (§1) Assessment of gene expression and essentiality in RKO WT
(§2) Fluorescence Polarization‐based competition assay
(§3) EC50 values were calculated with GraphPad Prism […]
(§4) the FP value of free tracer. […]
(§5) instructions. […] For the screening of the whole SuFEx
(§6) Data visualization was done with seaborn
(§7) (https://seaborn.pydata.org, version 0.12.2). […]
(§8) compounds. (F) Analysis of the cytotoxicity of compounds with treatment‐centric features related to FL2‐ […]
(§9) Synthesis and in Vitro Evaluation of Diverse Heterocyclic Diphenolic Compounds as Inhibitors of DYRK1A.
(§10) (7) Zhang, J.‐H.; Chung, T. D. Y.; Oldenburg, K. R. A Simple Statistical Parameter for Use in Evaluation and Validation of High Throughput Screening Assays. SLAS Discov.

[2] = test system: HEK293T cells; experiment: as above; type: cell-based, human; details: up to 10 μM
Method: as §1, §2, §3, §4, §5, §6, §7, §8, §9, §10

[3] = biological target: T1, recombinant DDB1-CRBN (Homo sapiens, UniProt Q96SW2); experiment: Fluorescence polarization-based competition assay for CRBN binding; details: 200 nM CRBN-DDB1, 20 nM pomalidomide-fluorescein tracer 16, triplicates; read-out: FP_CRBN_binding: CRBN binding affinity, EC50
T1 construct: His; made in house; host or cells: High Five insect cells (baculovirus made and propagated in SF9 cells)
Method: Prior to screening the compound library in the isogenic CPA, we assessed their CRBN binding affinities using a fluorescence-polarization-based competition assay with recombinant DDB1-CRBN and the fluorescent tracer 16 (Figure S2). […] We also assessed the cytotoxicity of the CRBN binders in RKO wild-type (WT) cells to determine the appropriate treatment concentration. […]
as §2
(§11) Fluorescence Polarization assays were performed in 384‐well, Low Volume, Black, Round Bottom, Polystyrene Nonbinding surface Microplates (Corning, #4514). The test compounds were incubated with 200 nM CRBN‐DDB1 and 20 nM Pomalidomide‐fluorescein tracer 16 in 50 mM Tris‐HCl pH 7.5, 200 mM NaCl, 1 mM DTT, 0.02% Triton X‐ 100, and 0.1 µg/µL Bovine Serum Albumin (Sigma Aldrich, #A7030) in a total volume of 25 µL. Fluorescence polarization values were determined with a PerkinElmer Envision reader with FITC FP dual mirror and FITC FP 480 excitation filter and FITC FP 535 emission filters. Fluorescence polarization values of a 10x serial dilution (10 nM to 100 µM) of the test compounds were determined in triplicates. EC50 values were calculated with GraphPad Prism software (version 10.0.2) with a non‐linear fit function (4PL sigmoidal curve fit) adjusting the bottom constrain to the FP value of free tracer. […]

[4] = biological target: T2, GSPT2 (Homo sapiens, UniProt Q8IYD1+Q96SW2); experiment: Western blot analysis of GSPT1 and GSPT2 degradation in RKO WT or CRBN KO cells; type: cell-based; details: RKO WT or RKO CRBN KO, 10 µM, 16 h
T2 construct: endogenous in cells; host or cells: RKO WT or RKO CRBN KO
Method: (A) Structure of FL2-14 comprising fluorosulfate scaffold FL2 (black) and tail group modification 14 (blue). (B) DMSO-normalized quantitative proteomics after 16 h of treatment with FL2-14 (10 μM) in RKO WT (n = 2). […] (C) Structural alignment of AlphaFold models of GSPT1 (AF-P15170-F1-model_v4 in gray) and GSPT2 (AF-Q8IYD1-F1-model_v4 in blue). (D) Validation of GSPT2 degradation by FL2-14. […] (E) Dose–response of FL2-14 in RKO and HEK293T cells. Cells were treated with the FL2-14 (0 to 10 μM) for 16 h. (F) Degradation of GSPT2^WT or GSPT2^G566N. […]
Analysis of targeted protein degradation of GSPT1 and GSPT2 via western blot For degradation assays 800 000 RKO WT or CRBN KO cells were seeded 1 day prior to the treatment in 6 well plates.
Then, cells were treated with 10 µM of the compounds for 16 hours if not otherwise stated. Cells were harvested, lysed for 30 min at 37°C in lysis buffer (1x PBS, 1% SDS, 2 mM MgCl2, 1x Halt Protease inhibitor cocktail, 50 Units Benzonase) and cleared for 30 min at 18 000 x g at 4°C. Protein concentration was determined with the Pierce 660 nm Protein Assay using the Ionic Detergent Compatibility Reagent (Thermo Scientific). 10 µg total proteome were subjected to western blot analysis by adding 4x Bolt™ LDS Sample Buffer (Thermo Scientific). Samples were boiled at 95°C for 5 min and subjected to gel electrophoresis with Bolt™ 4‐12% Bis‐Tris Plus Gels (Thermo Scientific) with Bolt™ MES SDS Running Buffer (Thermo Scientific). Membranes were blocked with 5% fat‐free milk in TBS‐T (20 mM Tris, 150 mM NaCl, 0.1% Tween, pH 7.6) for 1 h at room temperature and washed subsequently 3x 5 min with TBS‐
T. Afterwards, they were incubated for 1 h at room temperature with either GSPT1 antibody (Abcam ab49878, rabbit, […]
rabbit, 1:10 000), CRBN (Cell Signaling Technologies, CST71810S, rabbit, 1:1000), or GAPDH (SantaCruz sc‐47724, mouse, 1:1 000). Followed by washing 3x 5 min with TBS‐T and incubation for 1 h at room temperature with either Goat ANTI‐RABBIT IgG StarBright™ Blue 700 (Bio‐Rad, #12004162, 1:10 000) or Goat anti‐Mouse IgG (H+L) Cross‐ Adsorbed Secondary Antibody, DyLight™ 800 (Bio‐Rad, STAR117D800GA, 1:10 000) fluorophore‐conjugated

[5] = test system: RKO WT, RKO CRBN KO and RKO CRBN OE; experiment: Isogenic cell painting assay, treatment-centric feature selection and CRBN-dependency prediction; type: cell-based, human
[6] = test system: RKO WT cells; details: method not stated for this control
Source text: Prior to screening the compound library in the isogenic CPA, we assessed their CRBN binding affinities using a fluorescence-polarization-based competition assay with recombinant DDB1-CRBN and the fluorescent tracer 16 (Figure S2). […] We also assessed the cytotoxicity of the CRBN binders in RKO wild-type (WT) cells to determine the appropriate treatment concentration.
as §1
Public datasets on the transcriptome and essentiality of a protein‐encoding gene for RKO (cell line ID: ACH‐000943) were retrieved from DepMap Public 23Q2 (https://depmap.org/portal/, accessed on 14 August 2023). […]
as §2
as §11, with “The test compounds were incubated with 200 nM CRBN‐DDB1 and 20 nM Pomalidomide‐fluorescein tracer 16 in 50 mM Tris‐HCl pH 7.5, 200 mM NaCl, 1 mM DTT, 0.02% Triton X‐ 100, and 0.1 µg/µL Bovine Serum Albumin (Sigma Aldrich, #A7030) in a total volume of 25 µL.” left out

Compound | EC50 [1] [nM] | EC50 [2] [nM] | EC50 [3] [nM] | other results
O=C1CCC(N2C(=O)c3ccc(Nc4cccc(OS(=O)(=O)N5CC(CCO)C5)c4)cc3C2=O)C(=O)N1 (centres unmarked) [FL1-2] | > 10000 | > 10000 | 419 | –
O=C1CCC(N2C(=O)c3ccc(Nc4cccc(OS(=O)(=O)N5CCC(c6ccco6)C5)c4)cc3C2=O)C(=O)N1 (centres unmarked) [FL1-12] | > 10000 | > 10000 | 2780 | –
CN(Cc1ncc(C2CC2)o1)S(=O)(=O)Oc1cccc(Nc2ccc3c(c2)C(=O)N(C2CCC(=O)NC2=O)C3=O)c1 (centres unmarked) [FL1-14] | – | – | 395 | GSPT1/2 degradation by CRBN binders with tail group modification 14 [4]: weak degradation of GSPT2
CN(C)c1ncc(CN(C)S(=O)(=O)Oc2cccc(Nc3ccc4c(c3)C(=O)N(C3CCC(=O)NC3=O)C4=O)c2)cn1 (centres unmarked) [FL1-18] | > 10000 | > 10000 | 363 | –
CN1C(=O)CCC(N2C(=O)c3cccc(N)c3C2=O)C1=O (centres unmarked) [Methylated pomalidomide] | – | – | – | Number_Features: number of treatment-centric features selected [5]: 0
Nc1cccc2c1C(=O)N(C1CCC(=O)NC1=O)C2=O (centres unmarked) [Pomalidomide, reference compound] | – | – | – | cytotoxicity to RKO WT [6]: not cytotoxic
COc1cc(N2CCN(CCOCCOCCNC(=O)CNc3cccc4c3C(=O)N(C3CCC(=O)NC3=O)C4=O)CC2)ccc1Nc1ncc(Cl)c(Nc2ccccc2S(=O)(=O)C(C)C)n1 (centres unmarked) [TL 13-12] | – | – | – | change of cell size across isogenic RKO cells ([5]; 1.5 μM, RKO CRBN OE vs RKO CRBN KO): enlarges cells drastically in a CRBN-dependent manner
